For assay [1], the target named is human Werner helicase (WRN, amino acids 517-1235 with L1074F point mutation) (Homo sapiens (Human), UniProt Q14191, L1074F). Briefly: WRN (BV08) ADP-Glo assay. The settings on record: human WRN (aa 517-1235, L1074F), read-out: ADP-Glo_hWRN_IC50. The class given is biochemical. An excerpt: Bovine skin gelatin (BSG), dimethyl sulfoxide (DMSO), Pluronic F-127 and tris(2-carboxyethyl)phosphine hydrochloride solution (TCEP) were purchased from Sigma-Aldrich (St. Louis, MO) at the highest level of purity possible. Bicine buffer solution was purchased from Alfa Aesar (Tewksbury, MA) and compound NSC-617145 was purchased from Tocris (Minneapolis, MN). DNA duplex was synthesized at BGI (Shenzhen, China) and was composed of strand 1 with the sequence 5′-[…]-3′ (SEQ ID NO.: 1) and strand 2 with the sequence 5′-[…]-3′ (SEQ ID NO.: 2). DNA strands were annealed by heating to 95° C. for 5 minutes followed by slow cooling to room temperature. Compounds in 100% DMSO (0.1 μl) were spotted into a 384-well white polystyrene Optiplate-384 (Perkin Elmer; Waltham, MA) assay plate using a LabCyte Echo 550 (Agilent; Santa Clara, CA). DMSO (0.1 μl) was added to columns 12, rows A-H and column 24, rows I-P for the maximum signal control. Compound NSC-617145 (0.1 μl) was added to columns 12, rows I-P and 24, rows A-H for the minimum signal control (100% inhibition). Compounds/DMSO were preincubated for 15 minutes at 25° C. with 5 μl 2×WRN (BV08), prepared as described below, in assay buffer containing 20 mM Bicine (pH=7.5), 1 mM MgCl2, 10 mM KCl, 0.1% Pluronic F-127, 0.005% BSG, 1 mM TCEP. The reaction was initiated by the addition of 5 μl 2× substrate mixture in assay buffer and incubated for 60 minutes at 25° C. The final concentrations of the assay components were 0.15 nM WRN, 5 μM ATP, and 0.1 nM DNA duplex. The final DMSO concentration was 1% and the reference compound concentration (NSC-617145) used for the minimal signal control was 20 μM. The reaction was stopped by the addition of the ADP-Glo Kit components (Promega; Madison, WI) as directed and the relative luminescence units (RLU) were read on an Envision 2104 (Perkin Elmer; Waltham, MA).
Chain of human Werner helicase (WRN, amino acids 517-1235 with L1074F point mutation) (Q14191 other isoform, or with tags, fused parts or gaps L1074F (already in the parent)): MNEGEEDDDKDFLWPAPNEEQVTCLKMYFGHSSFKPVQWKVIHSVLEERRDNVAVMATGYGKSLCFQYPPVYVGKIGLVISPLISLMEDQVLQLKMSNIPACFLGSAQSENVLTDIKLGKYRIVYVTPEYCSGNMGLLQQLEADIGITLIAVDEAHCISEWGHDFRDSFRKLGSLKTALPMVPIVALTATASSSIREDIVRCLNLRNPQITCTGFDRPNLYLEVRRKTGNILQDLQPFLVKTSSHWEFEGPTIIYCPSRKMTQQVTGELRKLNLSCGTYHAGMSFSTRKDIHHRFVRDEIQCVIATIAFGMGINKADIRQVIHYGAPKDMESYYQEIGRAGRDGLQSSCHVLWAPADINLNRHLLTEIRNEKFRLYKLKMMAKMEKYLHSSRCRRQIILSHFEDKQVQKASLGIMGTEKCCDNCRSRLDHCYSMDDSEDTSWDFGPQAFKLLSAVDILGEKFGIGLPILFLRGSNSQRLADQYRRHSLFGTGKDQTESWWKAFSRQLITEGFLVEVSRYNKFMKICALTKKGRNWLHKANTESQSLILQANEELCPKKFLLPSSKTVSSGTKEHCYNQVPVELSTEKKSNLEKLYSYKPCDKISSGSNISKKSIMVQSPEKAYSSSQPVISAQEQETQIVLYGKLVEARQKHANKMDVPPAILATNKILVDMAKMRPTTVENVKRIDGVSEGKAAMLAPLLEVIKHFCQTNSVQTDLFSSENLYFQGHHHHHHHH
% inhibition calculation:
% INH=(RLU MAX−RLU sample)/(RLU MAX−RLU MIN))×100
Where RLU=relative luminescence units, sample=signal in sample well, and MIN and MAX are the respective minimum and maximum signal controls. Four-parameter IC50 fit equation:
Y=Bottom+(Top−Bottom)/(1+(IC50/X)^Hill Slope)
Where top and bottom are normally allowed to float but may be fixed at 100 or 0 respectively in a 3-parameter fit. Y is the % inhibition and X is the compound concentration.
Molecular Biology and virus production. The DNA encoding human Werner helicase (Uniprot Q14191, amino acids 517-1235 with L1074F point mutation) was generated with codon-optimization for E. coli expression and subcloned into the pFastBac vector with a TEV cleavable 8×His tag (WRN—BV08). The baculovirus from the expression plasmid WRN—BV08 was generated from transfection and amplification following the manufacturer's instructions.
Sf9 cells grown in SF900II media were infected with 1:200 WRN—BV08 P2 virus and incubated for protein expression for 72 h at 27° C. The WRN protein was purified using the following protocol. The cell pellets were thawed and resuspended in buffer A (50 mM Tris, pH 7.5, 500 mM NaCl, 1 mM TCEP, 10% Glycerol) supplemented with 0.5% CHAPS, 1 mM PMSF, […] Leupeptin, 1 μg/ml Pepstatin, and the Pierce Universal Nuclease and cocktail tablet. Cleared lysates were loaded onto a Ni Sepharose™ excel column and washed with buffer A and bound protein was eluted with buffer A supplemented with 300 mM imidazole. The eluted protein was dialyzed against buffer A and digested by His-tagged TEV (1:5 ratio) overnight at 4° C. ZnCl2 was added into the sample at final 15 μM before loading onto a second Ni Sepharose™ excel column. Untagged WRN protein was eluted from the column with buffer A supplemented with 20 mM imidazole, dialyzed overnight into buffer B (50 mM Tris, pH 7.5, 1 mM TCEP, 10% Glycerol) supplemented with 150 mM NaCl and loaded onto a Heparin column. Proteins were eluted with a step gradient of buffer B supplemented with 150 mM, 200 mM, 300 mM and 500 mM NaCl. […]
Background: ADP-Glo turns the ADP formed in a reaction into a luminescent signal.

For assay [2], the system named is p21 induction in HCT 116 cells. The assay can be described thus: p21 induction in cells (In-Cell Western, p21/GAPDH ratio). The class given is cell-based. Particulars: Homo sapiens, 24 h compound incubation, read-out: p21_EC50. In short, it runs like this: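 HCT 116 cells treated 24 h at 37° C with 11-point, 2-fold dilutions typically from 10 μM, in duplicate. Fixed cells co-stained for p21 (800 nm) and GAPDH (700 nm) by In-Cell Western. p21/GAPDH ratio normalised between DMSO and reference WRN inhibitor controls, and EC50 obtained by nonlinear regression.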

Each structure is given as a SMILES string.

For `CCc1c(N2CCN(C(=O)c3ncnc(C)c3O)[C@H]3CC[C@@H]32)c(=O)c2nn(C3=CCOCC3)nc2n1CC(=O)NC12CC(C(C)C)(C1)C2` [Compound I-18, 2-(2-(3,6-dihydro-2H-pyran-4-yl)-5-ethyl-6-((1S,6S)-5-(5-hydroxy-6-methylpyrimidine-4-carbonyl)-2,5-diazabicyclo[4.2.0]octan-2-yl)-7-oxo-2,7-dihydro-4H-[1,2,3]triazolo[4,5-b]pyridin-4-yl)-N-(3-isopropylbicyclo[1.1.1]pentan-1-yl)acetamide], in assay [1], the IC50 fell in the range of 5 to 50 nM. Besides, in assay [2], the EC50 is at most 500 nM.

As to `CCc1c(N2CCN(C(=O)c3c(OC)ncc(C)c3O)CC2)c(=O)c2nn(C3=CCOCC3)nc2n1CC(=O)NC12CC(C3CC3)(C1)C2` [Compound I-97, N-{3-cyclopropylbicyclo[1.1.1]pentan-1-yl}-2-[2-(3,6-dihydro-2H-pyran-4-yl)-5-ethyl-6-[4-(4-hydroxy-2-methoxy-5-methylpyridine-3-carbonyl)piperazin-1-yl]-7-oxo-2H,4H,7H-[1,2,3]triazolo[4,5-b]pyridin-4-yl]acetamide], the IC50 in assay [1] is 5 to 50 nM. Besides, in assay [2], the EC50 is at most 500 nM.

With `CCc1c(N2CCN(C(=O)c3c(OC)ncc(C)c3O)CC2)c(=O)c2nn(-c3ccnc(OC)c3)nc2n1CC(=O)NC12CC(CC(F)F)(C1)C2` [Compound I-121, N-[3-(2,2-difluoroethyl)bicyclo[1.1.1]pentan-1-yl]-2-{5-ethyl-6-[4-(4-hydroxy-2-methoxy-5-methylpyridine-3-carbonyl)piperazin-1-yl]-2-(2-methoxypyridin-4-yl)-7-oxo-2H,4H,7H-[1,2,3]triazolo[4,5-b]pyridin-4-yl}acetamide], in assay [1], the IC50 lay within 5 to 50 nM. The EC50 in assay [2] lay within 500 to 2000 nM.

On to `CCc1c(N2CCN(C(=O)c3ncnc(C)c3O)CC2)c(=O)c2nn(-c3cnn(C4CC4)c3)nc2n1CC(=O)Nc1ccc(C(F)(F)F)cc1Cl` [Compound I-112, N-[2-chloro-4-(trifluoromethyl)phenyl]-2-[2-(1-cyclopropyl-1H-pyrazol-4-yl)-5-ethyl-6-[4-(5-hydroxy-6-methylpyrimidine-4-carbonyl)piperazin-1-yl]-7-oxo-2H,4H,7H-[1,2,3]triazolo[4,5-b]pyridin-4-yl]acetamide], for which, in assay [1], the IC50 lay within 5 to 50 nM. Further, the EC50 in assay [2] is at most 500 nM.

Regarding `CCc1c(N2CCN(C(=O)c3c(OC)ncc(C)c3O)[C@H]3CC[C@@H]32)c(=O)c2nn(-c3ccnc(OC)c3)nc2n1CC(=O)Nc1ccc(C(F)(F)F)cc1F` [Compound I-102, 2-{5-ethyl-6-[(1S,6S)-5-(4-hydroxy-2-methoxy-5-methylpyridine-3-carbonyl)-2,5-diazabicyclo[4.2.0]octan-2-yl]-2-(2-methoxypyridin-4-yl)-7-oxo-2H,4H,7H-[1,2,3]triazolo[4,5-b]pyridin-4-yl}-N-[2-fluoro-4-(trifluoromethyl)phenyl]acetamide], the IC50 in assay [1] was at most 5 nM. Also, the EC50 in assay [2] was at most 500 nM.

Take `CCc1c(N2CCN(C(=O)c3c(OC)ncc(C)c3O)CC2)c(=O)c2nn(-c3ccnc(OC)c3)nc2n1CC(=O)NC12CC(C3CC3)(C1)C2` [Compound I-129, N-{3-cyclopropylbicyclo[1.1.1]pentan-1-yl}-2-{5-ethyl-6-[4-(4-hydroxy-2-methoxy-5-methylpyridine-3-carbonyl)piperazin-1-yl]-2-(2-methoxypyridin-4-yl)-7-oxo-2H,4H,7H-[1,2,3]triazolo[4,5-b]pyridin-4-yl}acetamide]: in assay [1], the IC50 was 5 to 50 nM. In addition, the EC50 in assay [2] is at most 500 nM.

For the compound `CCc1c(N2CCN(C(=O)c3ncnc(C)c3O)[C@H]3CC[C@@H]32)c(=O)c2nn(-c3ccnc(OC)c3)nc2n1CC(=O)NC1CC2(CCC2)C1` [Compound I-21, 2-(5-ethyl-6-((1S,6S)-5-(5-hydroxy-6-methylpyrimidine-4-carbonyl)-2,5-diazabicyclo[4.2.0]octan-2-yl)-2-(2-methoxypyridin-4-yl)-7-oxo-2,7-dihydro-4H-[1,2,3]triazolo[4,5-b]pyridin-4-yl)-N-(spiro[3.3]heptan-2-yl)acetamide], the IC50 in assay [1] was in the range of 5 to 50 nM. In assay [2], the EC50 was at most 500 nM.

As to `CCc1c(N2CCN(C(=O)c3c(OC)ncc(C)c3O)CC2)c(=O)c2nn(-c3ccnc(OC)c3)nc2n1CC(=O)NC1CC2(CC(C)C2)C1` (stereo not drawn) [Compound I-103, 2-{5-ethyl-6-[4-(4-hydroxy-2-methoxy-5-methylpyridine-3-carbonyl)piperazin-1-yl]-2-(2-methoxypyridin-4-yl)-7-oxo-2H,4H,7H-[1,2,3]triazolo[4,5-b]pyridin-4-yl}-N-{6-methylspiro[3.3]heptan-2-yl}acetamide], the IC50 in assay [1] fell in the range of 5 to 50 nM. Also, the EC50 in assay [2] fell in the range of 2000 to 5000 nM.

In the case of `CCc1c(N2CCN(C(=O)c3c(N)ncnc3OC)[C@H]3CC[C@@H]32)c(=O)c2nn(C3=CCOCC3)nc2n1CC(=O)NC12CC(C3CC3)(C1)C2` [Compound I-193, 2-{6-[(1S,6S)-5-(4-amino-6-methoxypyrimidine-5-carbonyl)-2,5-diazabicyclo[4.2.0]octan-2-yl]-2-(3,6-dihydro-2H-pyran-4-yl)-5-ethyl-7-oxo-2H,4H,7H-[1,2,3]triazolo[4,5-b]pyridin-4-yl}-N-{3-cyclopropylbicyclo[1.1.1]pentan-1-yl}acetamide], in assay [1], the IC50 lay within 5 to 50 nM. In addition, the EC50 in assay [2] was 500 to 2000 nM.

`CCc1c(N2CCN(C(=O)c3ncnc(C)c3O)[C@H]3CC[C@@H]32)c(=O)c2nn(-c3ccnc(C)c3)nc2n1CC(=O)Nc1ccc(C(F)(F)F)cc1F` [Compound I-59, 2-{5-ethyl-6-[(1S,6S)-5-(5-hydroxy-6-methylpyrimidine-4-carbonyl)-2,5-diazabicyclo[4.2.0]octan-2-yl]-2-(2-methylpyridin-4-yl)-7-oxo-2H,4H,7H-[1,2,3]triazolo[4,5-b]pyridin-4-yl}-N-[2-fluoro-4-(trifluoromethyl)phenyl]acetamide]: in assay [1], the IC50 is at most 5 nM. In addition, the EC50 in assay [2] was at most 500 nM.

On to `CCc1c(C2=CCN(C(=O)c3ncnc(C)c3O)C[C@@H]2C)c(=O)c2nn(-c3ccnc(OC)c3)nc2n1CC(=O)NC12CC(C(C)C)(C1)C2` (single isomer, unassigned) [Compound I-81], for which the IC50 in assay [1] is 5 to 50 nM. Also, in assay [2], the EC50 is 500 to 2000 nM.

In the case of `CCc1c(N2CCN(C(=O)c3c(OC)ncc(C)c3O)[C@H]3CC[C@@H]32)c(=O)c2nn(-c3ccnc(C)c3)nc2n1CC(=O)Nc1ccc(C(F)(F)F)cc1Cl` [Compound I-100, N-[2-chloro-4-(trifluoromethyl)phenyl]-2-{5-ethyl-6-[(1S,6S)-5-(4-hydroxy-2-methoxy-5-methylpyridine-3-carbonyl)-2,5-diazabicyclo[4.2.0]octan-2-yl]-2-(2-methylpyridin-4-yl)-7-oxo-2H,4H,7H-[1,2,3]triazolo[4,5-b]pyridin-4-yl}acetamide], in assay [1], the IC50 was 5 to 50 nM. In addition, in assay [2], the EC50 is at most 500 nM.

These data come from patent US20250129069A1, “TRIAZOLO WRN INHIBITORS” (Nimbus Wadjet, Inc., priority 2023, published 2025).
